Patent publication US9314468B2, “Chemokine receptor modulators” (Altiris Therapeutics, Inc., priority 2008, dated 2016)

Target: CXCR4 (Homo sapiens (Human), UniProt P61073)
Assay: Functional calcium mobilization assay (SDF-1α induced)
Assay type: cell-based
Settings: for IC50: CEM cells, SDF-1α challenge at EC80-EC90, read-out: Ca Flux IC50; for inhibition at 1 µM: CCRF-CEM, read-out: % inhibition at 1 μM
Method: Functional modulation of CXCR4 was determined by calcium mobilization assay using leukemic lymphoid CEM cells, which naturally express high levels of CXCR4. Generally, the assay is carried out as follows: Cells are grown in vitro to confluency. On the day of the assay, cells are removed from the incubator, culture medium removed and replaced with a calcium sensitive dye (Calcium3 assay kit; Molecular Devices, Sunnyvale, Calif.). The cells are allowed to dye load for 45-60 min at 37° C. in the cell culture incubator and then allowed to equilibrate to room temperature for no more than 15 min before assay.
Compound plates were generated containing up to 3% dimethyl sulfoxide in media kept at room temperature. Test compounds were added to the cells at a 1:3 dilution, and calcium mobilization was measured using a Flex Station fluorescence imager (Molecular Devices). This first read was used to determine direct agonist activation of the CXCR4 receptor by the test compounds. […] Full dose response curves were generated daily for SDF-1a to calculate IC50 concentrations. The IC50 values are reported. In cases, where one was not determined, a percent inhibition at the 1 μM concentration was extrapolated.
Functional calcium mobilization assay was conducted as described in Example 27.

CXCR4, sequence (P61073 whole entry): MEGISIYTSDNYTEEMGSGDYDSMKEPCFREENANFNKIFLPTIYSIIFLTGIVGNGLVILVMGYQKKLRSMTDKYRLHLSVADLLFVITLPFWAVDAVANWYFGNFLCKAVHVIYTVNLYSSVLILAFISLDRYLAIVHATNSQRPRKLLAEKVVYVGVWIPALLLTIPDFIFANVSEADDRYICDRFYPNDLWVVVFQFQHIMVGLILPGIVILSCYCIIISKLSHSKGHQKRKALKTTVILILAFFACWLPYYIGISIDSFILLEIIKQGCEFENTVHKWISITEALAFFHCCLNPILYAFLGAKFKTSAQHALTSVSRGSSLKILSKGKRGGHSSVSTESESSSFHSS

| SMILES | IC50 | inhibition at 1 µM |
| --- | --- | --- |
| NCCCCN(Cc1cn(Cc2ccccc2)nn1)C1CCCc2cccnc21 (stereo not drawn) |  | 45% |
| CS(=O)(=O)N1CCC(CCN(Cc2nccc3c2[nH]c2ccccc23)C2CCCc3cccnc32)CC1 (stereo not drawn) |  | 5% |
| c1cnc2c(c1)CCC[C@@H]2NCc1cc2c(cn1)[nH]c1ccccc12 |  | 39% |
| c1cnc2c(c1)CCC[C@@H]2NCc1nccc2c1[nH]c1ccccc12 |  | 0% |
| NCCCCN(Cc1ccccn1)Cc1nccc2c1[nH]c1ccccc12 | 1970 nM |  |
| Cn1c2ccccc2c2cc(CN(CCCCN)[C@H]3CCCc4cccnc43)ncc21 | 57 nM |  |
| O=C(NNc1ccccc1)c1ccc(CN(Cc2nccc3c2[nH]c2ccccc23)[C@H]2CCCc3cccnc32)cc1 |  | 0% |
| c1cnc2c(c1)CCC[C@@H]2N(CCCN1CCNCC1)Cc1cc2c(cn1)[nH]c1ccccc12 | 331 nM |  |
| NCCCCN(Cc1cc2c3ccccc3n(CC(=O)N3CCOCC3)c2cn1)[C@H]1CCCc2cccnc21 |  | 0% |
| NCCCCN(Cc1cc2c3ccccc3n(CC(=O)O)c2cn1)[C@H]1CCCc2cccnc21 | 864 nM |  |
| CC(C)(C)OC(=O)Cn1c2ccccc2c2cc(CN(CCCCN)[C@H]3CCCc4cccnc43)ncc21 | 949 nM |  |
| NCc1ccc(CN(Cc2nccc3c2[nH]c2ccccc23)[C@H]2CCCc3cccnc32)cc1 |  | 0% |
| CCOC(=O)Cn1c2ccccc2c2ccnc(CN(CCCCN)[C@H]3CCCc4cccnc43)c21 | 15 nM |  |
| NCCCCN(Cc1nccc2c3ccccc3n(CC(=O)N3CCNCC3)c12)[C@H]1CCCc2cccnc21 | 663 nM |  |
| NCCCCN(Cc1nccc2c3ccccc3n(CC(=O)NC3CCNCC3)c12)[C@H]1CCCc2cccnc21 | 110 nM |  |
| CN(Cc1nccc2c3ccccc3n(CCCCN3C(=O)c4ccccc4C3=O)c12)[C@H]1CCCc2cccnc21 |  | 32% |
| CN(Cc1nccc2c3ccccc3n(CCCCN)c12)[C@H]1CCCc2cccnc21 | 3370 nM |  |
| CN(Cc1nccc2c3ccccc3n(CCCN3C(=O)c4ccccc4C3=O)c12)[C@H]1CCCc2cccnc21 | 217 nM |  |
| O=C(Cn1c2ccccc2c2ccnc(CN(CCCN3CCNCC3)[C@H]3CCCc4cccnc43)c21)N1CCOCC1 | 44 nM |  |
| NCCCCN(Cc1nccc2c3ccccc3n(CC(=O)N3CCC(N)CC3)c12)[C@H]1CCCc2cccnc21 | 4390 nM |  |
| CN(Cc1nccc2c3ccccc3n(CCN3C(=O)c4ccccc4C3=O)c12)[C@H]1CCCc2cccnc21 | 329 nM |  |
| CN(Cc1nccc2c3ccccc3n(CCCN)c12)[C@H]1CCCc2cccnc21 | 1050 nM |  |
| CN(Cc1nccc2c3ccccc3n(CCN)c12)[C@H]1CCCc2cccnc21 | 142 nM |  |
| C#CCn1c2ccccc2c2ccnc(CN(CCCCN)[C@H]3CCCc4cccnc43)c21 | 9 nM |  |
| O=C(CN(Cc1nccc2c1[nH]c1ccccc12)[C@H]1CCCc2cccnc21)N1CCNCC1 | 1810 nM |  |
| O=C(CN(Cc1nccc2c1[nH]c1ccccc12)[C@H]1CCCc2cccnc21)NC1CCNCC1 |  | 0% |

| SMILES | IC50 | inhibition at 1 µM |
| --- | --- | --- |
| NCCCCN(Cc1nccc2c3ccccc3n(CCN3CCOCC3)c12)[C@H]1CCCc2cccnc21 | 4 nM |  |
| O=C1c2ccccc2C(=O)N1CCCn1c2ccccc2c2ccnc(CN[C@H]3CCCc4cccnc43)c21 |  | 0% |
| CN(Cc1nccc2c3ccccc3n(Cc3cnn[nH]3)c12)[C@H]1CCCc2cccnc21 |  | 0% |
| NCCCn1c2ccccc2c2ccnc(CN[C@H]3CCCc4cccnc43)c21 | 8890 nM |  |
| NCCCCN(Cc1nccc2c3ccccc3n(CCO)c12)[C@H]1CCCc2cccnc21 | 11 nM |  |
| NCCCCN(Cc1nccc2c3ccccc3n(Cc3ccccn3)c12)[C@H]1CCCc2cccnc21 | 31 nM |  |
| CCN(Cc1nccc2c3ccccc3n(CCCN3C(=O)c4ccccc4C3=O)c12)[C@H]1CCCc2cccnc21 | 1640 nM |  |
| NC1CCN(C(=O)CN(Cc2nccc3c2[nH]c2ccccc23)[C@H]2CCCc3cccnc32)CC1 |  | 0% |
| c1cnc2c(c1)CCC[C@@H]2N(Cc1ccc(N2CCNCC2)cc1)Cc1nccc2c1[nH]c1ccccc12 |  | 0% |
| c1ccc(N2CCNCC2)c(CN(Cc2nccc3c2[nH]c2ccccc23)[C@H]2CCCc3cccnc32)c1 | 3730 nM |  |
| NCCCCN(Cc1nccc2c3ccccc3n(Cc3ccncc3)c12)[C@H]1CCCc2cccnc21 | 120 nM |  |
| CC(C)CN(Cc1nccc2c3ccccc3n(CCCN3C(=O)c4ccccc4C3=O)c12)[C@H]1CCCc2cccnc21 | 6650 nM |  |
| CCN(Cc1nccc2c3ccccc3n(CCCN)c12)[C@H]1CCCc2cccnc21 | 997 nM |  |
| CC(C)CN(Cc1nccc2c3ccccc3n(CCCN)c12)[C@H]1CCCc2cccnc21 |  | 0% |
| NCCCCN(Cc1nccc2c3ccccc3n(Cc3cccnc3)c12)[C@H]1CCCc2cccnc21 | 481 nM |  |
| NCCCCN(Cc1nccc2c3ccccc3n(CC(=O)N3CCC(O)CC3)c12)[C@H]1CCCc2cccnc21 | 212 nM |  |
| c1cnc2c(c1)CCC[C@@H]2N(CCCN1CCNCC1)Cc1nccc2c3ccccc3n(CCN3CCOCC3)c12 | 24 nM |  |
| c1ccc(Cn2c3ccccc3c3ccnc(CN[C@H]4CCCc5cccnc54)c32)nc1 | 8390 nM |  |
| NCCCCN(Cc1nccc2c3ccccc3n(CC(=O)N3CC[S+]([O-])CC3)c12)[C@H]1CCCc2cccnc21 | 61 nM |  |
| O=C(Cn1c2ccccc2c2ccnc(CN(C(=O)CCN3CCNCC3)[C@H]3CCCc4cccnc43)c21)N1CCOCC1 |  | 0% |
| CC(C)(C)OC(=O)[C@@H](N)CCCN(Cc1nccc2c3ccccc3n(CC(=O)N3CCOCC3)c12)[C@H]1CCCc2cccnc21 |  | 0% |
| NCc1ccc(CN(Cc2nccc3c4ccccc4n(CC(=O)N4CCOCC4)c23)[C@H]2CCCc3cccnc32)cc1 |  | 0% |
| N[C@@H](CCCN(Cc1nccc2c3ccccc3n(CC(=O)N3CCOCC3)c12)[C@H]1CCCc2cccnc21)C(=O)O |  | 0% |
| O=C(Cn1c2ccccc2c2ccnc(CN(Cc3ccc(CNCc4ccccn4)cc3)[C@H]3CCCc4cccnc43)c21)N1CCOCC1 |  | 0% |
| O=C1CNCCN1CCCN(Cc1nccc2c3ccccc3n(CC(=O)N3CCOCC3)c12)[C@H]1CCCc2cccnc21 |  | 0% |

The next lines start with the values.

| IC50 | inhibition at 1 µM | SMILES |
| --- | --- | --- |
| 5100 nM |  | c1ccc(CNCCCCN(Cc2nccc3c2[nH]c2ccccc23)C2CCCc3cccnc32)nc1 (stereo not drawn) |
|  | 27% | c1ccc(CN(CCCCN(Cc2nccc3c2[nH]c2ccccc23)C2CCCc3cccnc32)Cc2ccccn2)nc1 (stereo not drawn) |
|  | 0% | NCCCN(Cc1nccc2c1[nH]c1ccccc12)C1CCCc2cccnc21 (stereo not drawn) |
|  | 4% | CCN(CC)CCCCN(Cc1nccc2c1[nH]c1ccccc12)C1CCCc2cccnc21 (stereo not drawn) |
|  | 0% | NCCN(Cc1nccc2c1[nH]c1ccccc12)C1CCCc2cccnc21 (stereo not drawn) |
|  | 0% | c1cnc2c(c1)CCCC2N(CCNC1=NCCN1)Cc1nccc2c1[nH]c1ccccc12 (stereo not drawn) |
|  | 6% | c1cnc2c(c1)CCCC2N(CCCNC1=NCCN1)Cc1nccc2c1[nH]c1ccccc12 (stereo not drawn) |
|  | 0% | c1cnc2c(c1)CCCC2N(CCCCN(CC1CC1)CC1CC1)Cc1nccc2c1[nH]c1ccccc12 (stereo not drawn) |
|  | 55% | c1cnc2c(c1)CCCC2N(CCC1CCNCC1)Cc1nccc2c1[nH]c1ccccc12 (stereo not drawn) |
|  | 1% | c1cnc2c(c1)CCCC2N(CCN1CCOCC1)Cc1nccc2c1[nH]c1ccccc12 (stereo not drawn) |
|  | 20% | c1cnc2c(c1)CCCC2N(CCCN1CCOCC1)Cc1nccc2c1[nH]c1ccccc12 (stereo not drawn) |
|  | 0% | c1cnc2c(c1)CCCC2N(CCN1CCNCC1)Cc1nccc2c1[nH]c1ccccc12 (stereo not drawn) |
|  | 49% | c1cnc2c(c1)CCCC2N(CCCCN1CCOCC1)Cc1nccc2c1[nH]c1ccccc12 (stereo not drawn) |
|  | 27% | CS(=O)(=O)N1CCN(CCCN(Cc2nccc3c2[nH]c2ccccc23)C2CCCc3cccnc32)CC1 (stereo not drawn) |
|  | 19% | CC(C)(C)OC(=O)N(CCCCN(Cc1nccc2c1[nH]c1ccccc12)[C@H]1CCCc2cccnc21)C(=O)OC(C)(C)C |
|  | 0% | CN(Cc1nccc2c1[nH]c1ccccc12)[C@H]1CCCc2cccnc21 |
|  | 23% | CC(C)CN(CCCCN(Cc1nccc2c1[nH]c1ccccc12)[C@H]1CCCc2cccnc21)CC(C)C |
|  | 18% | CC(C)(C)OC(=O)CN(CCCCN(Cc1nccc2c1[nH]c1ccccc12)[C@H]1CCCc2cccnc21)CC(=O)OC(C)(C)C |
|  | 0% | NCCCCN(C(=O)c1nccc2c1[nH]c1ccccc12)C1CCCc2cccnc21 (stereo not drawn) |
|  | 0% | c1cnc(NCCCCN(Cc2nccc3c2[nH]c2ccccc23)[C@H]2CCCc3cccnc32)nc1 |
|  | 0% | CS(=O)(=O)NCCCCN(Cc1nccc2c1[nH]c1ccccc12)[C@H]1CCCc2cccnc21 |
|  | 0% | OCCCCN(Cc1nccc2c1[nH]c1ccccc12)[C@H]1CCCc2cccnc21 |
| 6670 nM |  | NC(=O)NCCCCN(Cc1nccc2c1[nH]c1ccccc12)[C@H]1CCCc2cccnc21 |
|  | 0% | NCC#CCN(Cc1nccc2c1[nH]c1ccccc12)[C@H]1CCCc2cccnc21 |
|  | 0% | CCNC(=O)NCCCCN(Cc1nccc2c1[nH]c1ccccc12)[C@H]1CCCc2cccnc21 |
|  | 20% | NC/C=C/CN(Cc1nccc2c1[nH]c1ccccc12)[C@H]1CCCc2cccnc21 |
| 949 nM |  | NC/C=C\CN(Cc1nccc2c1[nH]c1ccccc12)[C@H]1CCCc2cccnc21 |
| 1440 nM |  | NC(=O)CCCN(Cc1nccc2c1[nH]c1ccccc12)[C@H]1CCCc2cccnc21 |
| 9580 nM |  | CC(C)(C)OC(=O)[C@@H](N)CCCN(Cc1nccc2c1[nH]c1ccccc12)[C@H]1CCCc2cccnc21 |
| 206 nM |  | CN1CCN(CCCN(Cc2nccc3c2[nH]c2ccccc23)[C@H]2CCCc3cccnc32)CC1 |
